Assay results published in the NIST ThermoML archive (doi:10.1016/j.fluid.2013.10.034).
± gives the expanded uncertainty stated by the source.

Assays:
[1] = refractive index (Na D-line) (dimensionless); conditions: 298.15 K; 101.33 kPa; Liquid; Standard Abbe refractometry
[2] = 298.15 K; 101.33 kPa; Liquid; Vibrating tube method

SMILES	refractive index [1]	mass density [2] [kg/m3]
CC(=O)CC(C)C [4-methylpentan-2-one]	1.3936 ± 0.0005	795.94 ± 0.14
CCCO [propan-1-ol]	1.3836 ± 0.0005	799.62 ± 0.11
O [water]	1.3325 ± 0.0005	
CC(C)O [propan-2-ol]	1.3754 ± 0.0005	782.7 ± 0.15
